# Patent publication US8541442B2, “Indole derivatives as anticancer agents” (Janssen Pharmaceutica N.V., priority 2009, dated 2013)
# System: human U87 glioma tumor
# Test: In vivo anti tumour effects, U87 glioma xenograft
# Details: Mus musculus, U-87 MG, po, 144 h, U87 xenograft in NMRI Nude mice, 20 mg/kg p.o. QD for 5 days, day 6 after start dosing; read-out: % T/C day 6
# Method: Immuno-deficient (athymic) male NMRI Nude (Nu/Nu) mice (20-25 g obtained from Janvier, France) were used for these studies. Initial weight was approximately […]. All animals were maintained under SPF “full barrier” conditions with free access to food and water. Mice were group housed under a 12-h light:dark cycle (lights on at 06:00 h) at a temperature of 19 to 22° C. and 35 to 40% humidity in Techniplast type-3 IVC cages. Mice were fed a standard Laboratory chow. All experiments were carried out in accordance with the European Communities Council Directives (86/609/EEC) and had to be approved by the local ethical committee. For an established tumor xenograft model (tumor volume ˜200 mm^3), mice were randomized according to tumor volumes, with 5 mice per treatment group.
# The human U87 glioma tumor cell line was derived from a patient. Cells were cultured at 37° C. in a humidified atmosphere (5% CO2, 95% air), in DMEM medium supplemented with 2 mM L-glutamine, 2.0 mM sodium pyruvate, 25 units/ml penicillin/25 μg/ml streptomycin and 10% fetal bovine serum. Cells were maintained as cell monolayer cultures, being passaged twice weekly at 3×10^6 cells per T175 flask using the following procedure. Briefly cells were washed with PBS (without Mg^2+, Ca^2+), before addition of trypsin-EDTA to the culture flasks. After detachment of cells the trypsin-EDTA was inactivated by addition of complete medium. Cell suspension was then transferred to 50 ml Falcon tube and centrifuged for 3 min at 1200 rpm. Medium was aspirated, with the cells being re-suspended in an appropriate volume of complete medium. The cells were counted in a haemocytometer and their viability was assessed by 0.25% trypan blue exclusion. An appropriate volume of cell suspension was then added to either a new T175 culture flask(s) or roller bottle containing fresh medium. For large scale-up growth of U87 tumor cells, an appropriate number of roller bottles were seeded with 0.5 to 1×10^7 cells 1 week prior to inoculation of mice. The medium was changed twice during this period, with the last change being the day prior to cell injection. Cells were collected as described above, with the exception that after centrifugation, the cells were re-suspended in cold (4° C.) serum-free medium. Mice were injected in the inguinal region with 1×10^7 cells total in a 200 μl volume.
# Human U87 glioma cells were injected directly into the inguinal region of the male NMRI Nude mice (1×10^7 cells/200 μl/animal) on day 0 (D0). On day 7-10 (can vary due to tumor take/growth between cell batches) when tumor volume had reached an approximate average of 200 mm^3, mice were randomized according to tumor volume, with 5 mice per treatment group. Mice were then treated once daily (QD) with either vehicle (10% HP-β-CD) or vehicle containing test compound (20 mg/kg) by gavage (p.o.) administered in a volume of 10 ml/kg body weight for 5 days. Specific tumor measurements were taken on day 6 (24 hours post 5th dose) and then again on day 10. Tumor re-growth (after dosing has stopped) was monitored so that the time-to-reach a volume of 2000 mm^3 (TTR2000) can be recorded. This gives extra information on the duration of drug action on the tumor growth. In general, tumor size and body weights were measured twice weekly, with mice monitored daily for clinical signs of toxicity for the duration of the treatment. Clinical signs of toxicity included (but not limited to), persistent anorexia or dehydration, posture, moribund, lethargy, hypothermia and/or laboured respiration (according to the UKCCCR guidelines for welfare of animals in experimental neoplasia (The UKCCCR (UK Coordinating Committee on Cancer Research) guidelines for the welfare of animals in experimental neoplasia (July 1997); and Workman, P. et al. UKCCCR guideline. Br. J. Cancer. 1998, 77: 1-10). […]
row,SMILES,response vs control in vivo at 20 mg/kg
1,Cc1cc(Nc2ccnc3c2CCC3O)ccc1NCCc1c[nH]c2c(CCC(C)O)cccc12 (stereo not shown) [Compound 9],145%
2,Cc1cc(Nc2ccnc3c2CCC3=O)ccc1NCCc1c[nH]c2c(C(C)O)cccc12 (stereo not shown) [Compound 4],77%
3,Cc1cc(Nc2ccnc(CO)c2)ccc1NCCc1c[nH]c2c(C(C)O)cccc12 (stereo not shown) [Compound 5],103%
4,Cc1cc(Nc2ccnc3c2CCC3O)ccc1NCCc1c[nH]c2c(C(C)(C)O)cccc12 (stereo not shown) [Compound 18],9%
5,OCc1cccc2c(CCNc3ccc(Nc4ccnc5c4CCC5O)cc3)c[nH]c12 (stereo not shown) [Compound 6],105%
6,Cc1cc(Nc2ccncc2)ccc1NCCc1c[nH]c2c(C(C)(C)O)cccc12 [Compound 2],14%

# Same assay, conditions: Mus musculus, U-87 MG, po, 240 h, U87 xenograft in NMRI Nude mice, 20 mg/kg p.o. QD for 5 days, day 10 after start dosing; read-out: % T/C day 10
row,SMILES,response vs control in vivo at 20 mg/kg
1,Cc1cc(Nc2ccnc3c2CCC3O)ccc1NCCc1c[nH]c2c(CCC(C)O)cccc12 (stereo not shown) [Compound 9],113%
2,Cc1cc(Nc2ccnc3c2CCC3=O)ccc1NCCc1c[nH]c2c(C(C)O)cccc12 (stereo not shown) [Compound 4],129%
3,Cc1cc(Nc2ccnc(CO)c2)ccc1NCCc1c[nH]c2c(C(C)O)cccc12 (stereo not shown) [Compound 5],67%
4,Cc1cc(Nc2ccnc3c2CCC3O)ccc1NCCc1c[nH]c2c(C(C)(C)O)cccc12 (stereo not shown) [Compound 18],-3%
5,OCc1cccc2c(CCNc3ccc(Nc4ccnc5c4CCC5O)cc3)c[nH]c12 (stereo not shown) [Compound 6],99%
6,Cc1cc(Nc2ccncc2)ccc1NCCc1c[nH]c2c(C(C)(C)O)cccc12 [Compound 2],-0.23%

# Same assay, conditions: U87 xenograft in NMRI Nude mice, 20 mg/kg p.o. QD for 5 days, day 6 after start dosing
row,SMILES,% T/C day 6
1,Cc1cc(Nc2ccnc(CO)c2)ccc1NCCc1c[nH]c2c(C(C)(C)O)cccc12 [Compound 19],57%
2,COc1cc(Nc2ccnc3c2CCC3O)ccc1NCCc1c[nH]c2c(C(C)(C)O)cccc12 (stereo not shown) [Compound 11],72%
3,Cc1cc(Nc2ccnc3c2CCC3(C)O)ccc1NCCc1c[nH]c2c(C(C)O)cccc12 (stereo not shown) [Compound 10],96%
4,Cc1cc(Nc2ccncc2)ccc1NCCc1c[nH]c2c(C(O)C(C)C)cccc12 (stereo not shown) [Compound 22],40%

# Same assay, conditions: U87 xenograft in NMRI Nude mice, 20 mg/kg p.o. QD for 5 days, day 10 after start dosing
row,SMILES,% T/C day 10
1,Cc1cc(Nc2ccnc(CO)c2)ccc1NCCc1c[nH]c2c(C(C)(C)O)cccc12 [Compound 19],40%
2,COc1cc(Nc2ccnc3c2CCC3O)ccc1NCCc1c[nH]c2c(C(C)(C)O)cccc12 (stereo not shown) [Compound 11],79%
3,Cc1cc(Nc2ccnc3c2CCC3(C)O)ccc1NCCc1c[nH]c2c(C(C)O)cccc12 (stereo not shown) [Compound 10],71%
4,Cc1cc(Nc2ccncc2)ccc1NCCc1c[nH]c2c(C(O)C(C)C)cccc12 (stereo not shown) [Compound 22],55%

# System: colorectal cancer cell line HCT116
# Test: Alamar Blue cell proliferation assay, HCT116
# Assay type: cell-based
# Details: HCT116 cells
# Method: (§1) For experiments in 384 wells plates the cells were seeded at a density of 5×10^3 cells/ml in Falcon 384-well culture plates (Life Technologies, Merelbeke, Belgium), black with clear bottom, in 45 μl culture medium. Cells were allowed to adhere to plastic for 24 hr. The tested compound was pre-diluted (1/50 in culture medium) and 5 μl pre-diluted compound was added to the wells. Following 4-day incubation, 10 μl of the Alamar Blue solution was added to each well and the cells were further incubated for 5 hrs (A2780) at 37° C. The fluorescence intensity was measured for each well with a Fluorescence plate reader (Fluorskan, Labsystems, 540 nm excitation and 590 nm emission)
# (§2) The antiproliferative activity was calculated as percentage of remaining viable cells in treated versus control (untreated cells) conditions. Within an experiment, the result for each experimental condition is the mean of 3 replicate wells. When appropriate, the experiments were repeated to establish full concentration-response curves. When appropriate, IC50-values (concentration of the drug, needed to reduce cell growth to 50% of the control) were computed using probit analysis for graded data (Finney, D. J., Probit Analyses, 2nd Ed. Chapter 10, Graded Responses, Cambridge University Press, Cambridge 1962). Herein the effects of test compounds are expressed as pIC50 (the negative log value of the IC50-value (M)) (see Table 5A).
# Compounds were also tested according to the above protocol but using other cell lines: colorectal cancer cell line HCT116, non-small cell lung cancer cell line H1299, human prostate cancer cell line DU145.
row,HCT116 cell proliferation inhibition pIC50,SMILES
1,6.67,COc1cc(Nc2ccnc3c2CCC3O)ccc1NCCc1c[nH]c2c(C(C)(C)O)cccc12 (stereo not shown) [Compound 11]
2,6.47,Cc1cc(Nc2ccnc3c2CCC3(C)O)ccc1NCCc1c[nH]c2c(C(C)O)cccc12 (stereo not shown) [Compound 10]

# Same assay, conditions: Homo sapiens, HCT-116, HCT116 cells; read-out: HCT116 cell proliferation inhibition pIC50 (converted)
row,SMILES,IC50
1,Cc1cc(Nc2ccnc3c2CCC3=O)ccc1NCCc1c[nH]c2c(C(C)O)cccc12 (stereo not shown) [Compound 4],1000 nM
2,Cc1cc(Nc2ccnc3c2CCC3O)ccc1NCCc1c[nH]c2c(C(C)(C)O)cccc12 (stereo not shown) [Compound 18],53.7 nM

# Second part, the compound after the results:
row,IC50,SMILES
1,955 nM,Cc1cc(Nc2ccnc3c2CCC3O)ccc1NCCc1c[nH]c2c(CCC(C)O)cccc12 (stereo not shown) [Compound 9]
2,347 nM,Cc1cc(Nc2ccnc(CO)c2)ccc1NCCc1c[nH]c2c(C(C)O)cccc12 (stereo not shown) [Compound 5]
3,4070 nM,OCc1cccc2c(CCNc3ccc(Nc4ccnc5c4CCC5O)cc3)c[nH]c12 (stereo not shown) [Compound 6]

# System: A2780 ovarian cancer cells
# Test: Alamar Blue cell proliferation assay, A2780
# Assay type: cell-based, human
# Details: 4-day incubation
# Method: The human A2780 ovarian cancer cells were a kind gift from Dr. T. C. Hamilton (Fox Chase Cancer Centre, Pennsylvania, U.S.A.). The cells were cultured in RPMI 1640 medium supplemented with 2 mM L-Glutamine, 50 μg/ml gentamicin and 10% fetal calf serum.
# Potassium Phosphate Buffer 0.1 M (PPB) was made as follows: 2.72 gram KH2PO4 and 13.86 gram K2HPO4 were dissolved in 500 ml milli-Q H2O, the pH was adjusted to pH 7.4 and the volume was brought to 1 liter with milli-Q H2O; the buffer was filter sterilised and stored at room temperature. Resazurin stock solution (PPB-A) was prepared fresh by dissolving 45 mg resazurin in 15 ml PBS. 30 mM potassium ferricyanide (PPB-B) was prepared by dissolving 0.987 gram potassium ferricyanide in 100 ml PPB. 30 mM potassium ferrocyanide (PPB-C) was prepared by dissolving 1.266 gram potassium ferrocyanide in 100 ml PPB.
# Mixture of PPB-A, PPB-B and PPB-C was prepared by mixing equal volumes of the respective solutions. Resazurin work solution (herein termed “Alamar Blue” solution) was prepared by diluting said mixture 20×(vol/vol) in PPB and filter sterilising; the Alamar Blue solution could be kept at 4° C. for a maximum of 2 weeks.
# as §1, §2
row,SMILES,A2780 cell proliferation inhibition pIC50
1,Cc1cc(Nc2ccnc(CO)c2)ccc1NCCc1c[nH]c2c(C(C)(C)O)cccc12 [Compound 19],7.34
2,Cc1cc(Nc2ccncc2)ccc1NCCc1c[nH]c2c(C(O)C(C)C)cccc12 (stereo not shown) [Compound 22],6.26
3,Cc1cc(Nc2ccnc3c2CCC3O)ccc1NCCc1c[nH]c2c(C(C)(C)O)cccc12 (stereo not shown) [Compound 18],7.47

# Further lines, results first:
row,A2780 cell proliferation inhibition pIC50,SMILES
1,6.55,COc1cc(Nc2ccnc3c2CCC3O)ccc1NCCc1c[nH]c2c(C(C)(C)O)cccc12 (stereo not shown) [Compound 11]
2,6.70,Cc1cc(Nc2ccnc3c2CCC3(C)O)ccc1NCCc1c[nH]c2c(C(C)O)cccc12 (stereo not shown) [Compound 10]

# Same assay, conditions: Homo sapiens, A2780, 96 h, 4-day incubation, read-out: A2780 cell proliferation inhibition pIC50 (converted)
row,SMILES,IC50
1,Cc1cc(Nc2ccnc3c2CCC3=O)ccc1NCCc1c[nH]c2c(C(C)O)cccc12 (stereo not shown) [Compound 4],182 nM
2,Cc1cc(Nc2ccncc2)ccc1NCCc1c[nH]c2c(C(C)(C)O)cccc12 [Compound 2],41.7 nM

# Now from value to compound:
row,IC50,SMILES
1,141 nM,Cc1cc(Nc2ccnc3c2CCC3O)ccc1NCCc1c[nH]c2c(CCC(C)O)cccc12 (stereo not shown) [Compound 9]
2,52.5 nM,Cc1cc(Nc2ccnc(CO)c2)ccc1NCCc1c[nH]c2c(C(C)O)cccc12 (stereo not shown) [Compound 5]
3,214 nM,OCc1cccc2c(CCNc3ccc(Nc4ccnc5c4CCC5O)cc3)c[nH]c12 (stereo not shown) [Compound 6]
